DBAASP
Converted amounts (≈) assume the structure as drawn.

Key:
Assay in all cases: ≥ marks a high value that may be exact or a test limit, other limits are often not marked, values filed in µg/mL are converted to µM
[1] = system: Escherichia coli ATCC 25922
[2] = system: Staphylococcus aureus ATCC 29213
[3] = system: Pseudomonas aeruginosa ATCC 27853
Escherichia coli = system: Escherichia coli
Staphylococcus aureus = system: Staphylococcus aureus

MIC [1] [µM]	MIC [2] [µM]	MIC [3] [µM]	MIC (Escherichia coli) [µM]	MIC (Staphylococcus aureus) [µM]	Structure (SMILES)
7.07 (≈ 12.1 µg/mL)	7.07 (≈ 12.1 µg/mL)	–	–	–	CC(=O)N[C@@H](CCCCN)C(=O)N1CCC[C@H]1C(=O)N[C@@H](CC(C)C)C(=O)N[C@@H](CCCCN)C(=O)N[C@@H](CC(C)C)C(=O)N[C@@H](CC(C)C)C(=O)N[C@@H](CCCCN)C(=O)N[C@@H](CCCCN)C(=O)N[C@@H](CC(C)C)C(=O)N[C@@H](CC(C)C)C(=O)N[C@@H](CCCCN)C(=O)N[C@@H](CC(C)C)C(=O)N[C@@H](CC(C)C)C(=O)N[C@@H](CCCCN)C(N)=O [KPLKLLKKLLKLLK]
10 (≈ 17.2 µg/mL)	10 (≈ 17.2 µg/mL)	–	–	–	CC(=O)N[C@@H](CCCCN)C(=O)N[C@@H](CC(C)C)C(=O)N1CCC[C@H]1C(=O)N[C@@H](CCCCN)C(=O)N[C@@H](CC(C)C)C(=O)N[C@@H](CC(C)C)C(=O)N[C@@H](CCCCN)C(=O)N[C@@H](CCCCN)C(=O)N[C@@H](CC(C)C)C(=O)N[C@@H](CC(C)C)C(=O)N[C@@H](CCCCN)C(=O)N[C@@H](CC(C)C)C(=O)N[C@@H](CC(C)C)C(=O)N[C@@H](CCCCN)C(N)=O [KLPKLLKKLLKLLK]
10 (≈ 16.6 µg/mL)	> 40	–	–	–	CC[C@H](C)[C@H](NC(=O)[C@H](CCCN=C(N)N)NC(=O)[C@H](CCC(N)=O)NC(=O)[C@@H](NC(=O)[C@@H](NC(=O)[C@H](CCCN=C(N)N)NC(=O)[C@H](CCCCN)NC(=O)[C@@H](N)Cc1ccccc1)[C@@H](C)CC)C(C)C)C(=O)N[C@@H](CCCCN)C(=O)N[C@@H](CC(=O)O)C(=O)N[C@@H](CO)C(=O)N[C@@H](CC(C)C)C(=O)N[C@@H](CCCN=C(N)N)C(=O)O [FKRIVQRIKDSLR]
26.5 (≈ 64 µg/mL)	106 (≈ 256 µg/mL)	53 (≈ 128 µg/mL)	–	–	CC[C@H](C)[C@H](NC(=O)CN)C(=O)NCC(=O)N[C@@H](CCCCN)C(=O)N[C@@H](Cc1ccccc1)C(=O)N[C@@H](CC(C)C)C(=O)N[C@@H](Cc1cnc[nH]1)C(=O)N[C@@H](CO)C(=O)N[C@@H](C)C(=O)N[C@@H](CCCCN)C(=O)N[C@@H](CCCCN)C(=O)N1CCC[C@H]1C(=O)NCC(=O)N[C@@H](CCCCN)C(=O)N[C@@H](C)C(=O)N[C@@H](Cc1ccccc1)C(=O)N[C@H](C(=O)NCC(=O)N[C@@H](CCC(=O)O)C(=O)N[C@H](C(=O)N[C@@H](CCSC)C(=O)N[C@@H](CC(N)=O)C(=O)N[C@@H](CO)C(N)=O)[C@@H](C)CC)C(C)C [GIGKFLHSAKKPGKAFVGEIMNS]
7.07 (≈ 11.7 µg/mL)	40 (≈ 66.4 µg/mL)	–	–	–	CC(=O)N[C@@H](CC(C)C)C(=O)N[C@@H](CCCCN)C(=O)N[C@@H](CCCCN)C(=O)N1CCC[C@H]1C(=O)N[C@@H](CC(C)C)C(=O)N[C@@H](CCCCN)C(=O)N[C@@H](CC(C)C)C(=O)NCC(=O)N[C@@H](CCCCN)C(=O)N[C@@H](CCCCN)C(=O)N[C@@H](CC(C)C)C(=O)N[C@@H](CC(C)C)C(=O)N[C@@H](CCCCN)C(=O)N[C@@H](CC(C)C)C(N)=O [LKKPLKLGKKLLKL]
26.1 (≈ 32 µg/mL)	> 52.2	26.1 (≈ 32 µg/mL)	–	–	CC[C@H](C)[C@H](NC(=O)[C@H](CCCN=C(N)N)NC(=O)[C@H](CCCCN)NC(=O)[C@@H](N)CCC(N)=O)C(=O)N[C@@H](CCCN=C(N)N)C(=O)N[C@H](C(=O)N[C@@H](CCCN=C(N)N)C(=O)N[C@@H](CC(C)C)C(=O)N[C@@H](CO)C(=O)N[C@@H](C)C(=O)O)C(C)C [QKRIRVRLSA]
10 (≈ 17.8 µg/mL)	10 (≈ 17.8 µg/mL)	–	–	–	CC(C)C[C@H](NC(=O)[C@H](CCCCN)NC(=O)[C@H](CC(C)C)NC(=O)[C@H](CC(C)C)NC(=O)[C@H](CCCCN)NC(=O)[C@H](CCCCN)NC(=O)[C@H](CC(C)C)NC(=O)[C@H](CC(C)C)NC(=O)[C@H](CCCCN)NC(=O)[C@H](C)NC(=O)[C@H](CC(C)C)NC(=O)[C@H](CCCCN)NC(=O)[C@H](CCCCN)NC(=O)[C@@H](N)CC(C)C)C(=O)N[C@@H](C)C(=O)NCC(=O)O [LKKLAKLLKKLLKLAG]
10 (≈ 17.8 µg/mL)	10 (≈ 17.8 µg/mL)	–	–	–	CC(C)C[C@H](NC(=O)[C@H](C)NC(=O)[C@H](CCCCN)NC(=O)[C@H](CC(C)C)NC(=O)[C@H](CC(C)C)NC(=O)[C@H](CCCCN)NC(=O)[C@H](CCCCN)NC(=O)[C@@H](N)CC(C)C)C(=O)N[C@@H](CCCCN)C(=O)N[C@@H](CCCCN)C(=O)N[C@@H](CC(C)C)C(=O)N[C@@H](CC(C)C)C(=O)N[C@@H](CCCCN)C(=O)N[C@@H](CC(C)C)C(=O)N[C@@H](C)C(=O)NCC(=O)O [LKKLLKALKKLLKLAG]
20 (≈ 36 µg/mL)	40 (≈ 72.1 µg/mL)	80 (≈ 144 µg/mL)	–	–	NCC(=O)N[C@@H](CCCN=C(N)N)C(=O)N[C@@H](CCCN=C(N)N)C(=O)N1CCC[C@H]1C(=O)N[C@@H](CCCN=C(N)N)C(=O)N1CCC[C@H]1C(=O)N[C@@H](CCCN=C(N)N)C(=O)N1CCC[C@H]1C(=O)N[C@@H](CCCN=C(N)N)C(=O)N1CCC[C@H]1C(=O)N[C@@H](Cc1c[nH]c2ccccc12)C(=O)N[C@@H](Cc1c[nH]c2ccccc12)C(=O)N[C@@H](Cc1c[nH]c2ccccc12)C(N)=O [GRRPRPRPRPWWW]
40 (≈ 68.7 µg/mL)	40 (≈ 68.7 µg/mL)	–	–	–	CC(=O)N[C@@H](CCCCN)C(=O)N[C@@H](CC(C)C)C(=O)N[C@@H](CC(C)C)C(=O)N[C@@H](CCCCN)C(=O)N[C@@H](CC(C)C)C(=O)N[C@@H](CC(C)C)C(=O)N[C@@H](CCCCN)C(=O)N[C@@H](CCCCN)C(=O)N[C@@H](CC(C)C)C(=O)N1CCC[C@H]1C(=O)N[C@@H](CCCCN)C(=O)N[C@@H](CC(C)C)C(=O)N[C@@H](CC(C)C)C(=O)N[C@@H](CCCCN)C(N)=O [KLLKLLKKLPKLLK]
2.83 (≈ 5.3 µg/mL)	–	–	10.7 (≈ 20 µg/mL)	2.66 (≈ 5 µg/mL)	CC(C)C[C@H](NC(=O)[C@H](Cc1ccccc1)NC(=O)[C@H](C)NC(=O)[C@H](Cc1c[nH]c2ccccc12)NC(=O)[C@H](Cc1c[nH]c2ccccc12)NC(=O)[C@H](Cc1c[nH]c2ccccc12)NC(=O)[C@@H]1CCCN1C(=O)[C@H](Cc1ccccc1)NC(=O)[C@H](CCCN=C(N)N)NC(=O)[C@H](CCCN=C(N)N)NC(=O)[C@@H](N)C(C)C)C(=O)N[C@@H](CCCN=C(N)N)C(=O)N[C@@H](CCCN=C(N)N)C(N)=O [VRRFPWWWAFLRR]
2 (≈ 3.7 µg/mL)	–	–	5.4 (≈ 9.99 µg/mL)	2.7 (≈ 5 µg/mL)	CC(C)C[C@H](NC(=O)[C@H](Cc1ccccc1)NC(=O)[C@H](C)NC(=O)[C@H](Cc1c[nH]c2ccccc12)NC(=O)[C@H](Cc1c[nH]c2ccccc12)NC(=O)[C@H](Cc1c[nH]c2ccccc12)NC(=O)[C@H](C)NC(=O)[C@H](Cc1ccccc1)NC(=O)[C@H](CCCN=C(N)N)NC(=O)[C@H](CCCN=C(N)N)NC(=O)[C@@H](N)C(C)C)C(=O)N[C@@H](CCCN=C(N)N)C(=O)N[C@@H](CCCN=C(N)N)C(N)=O [VRRFAWWWAFLRR]
14.1 (≈ 24.5 µg/mL)	14.1 (≈ 24.5 µg/mL)	–	–	–	CC(=O)N[C@@H](CC(C)C)C(=O)N[C@@H](CCCCN)C(=O)N[C@@H](CCCCN)C(=O)N[C@@H](CC(C)C)C(=O)N[C@@H](CC(C)C)C(=O)N[C@@H](CCCCN)C(=O)N[C@@H](CC(C)C)C(=O)N[C@@H](CC(C)C)C(=O)N[C@@H](CCCCN)C(=O)N[C@@H](CCCCN)C(=O)N[C@@H](CC(C)C)C(=O)N[C@@H](CC(C)C)C(=O)N[C@@H](CCCCN)C(=O)N[C@@H](CC(C)C)C(N)=O [LKKLLKLLKKLLKL]
2.5 (≈ 4.41 µg/mL)	5 (≈ 8.82 µg/mL)	–	–	–	CC(C)C[C@H](NC(=O)[C@H](CCCCN)NC(=O)[C@H](CC(C)C)NC(=O)[C@H](CC(C)C)NC(=O)[C@H](CCCCN)NC(=O)[C@H](CCCCN)NC(=O)[C@@H](N)CC(C)C)C(=O)NCC(=O)N[C@@H](CCCCN)C(=O)N[C@@H](CCCCN)C(=O)N[C@@H](CC(C)C)C(=O)N[C@@H](CC(C)C)C(=O)N[C@@H](CCCCN)C(=O)N[C@@H](CC(C)C)C(=O)N[C@@H](C)C(=O)NCC(=O)O [LKKLLKLGKKLLKLAG]
